Like-named read-outs stand apart in the source and are kept apart here.
Columns and labels:
FNO from M. smithii [1] = target: T1, FNO from M. smithii (Methanobrevibacter smithii, UniProt A5UJ76); experiment: Fluorometric FNO activity inhibition assay (F420 reduction with NADPH); assay type: biochemical
Protocol: According to the fluorometric assay of FNO activity, we observed an evident decrease in F420 reduction rates upon 15 min preincubation of FNO with increasing levels of the ten representative compounds of interest (the superimposition of representative residual activity plots obtained with β-D-glucose pentaacetate, mangiferin and baicalin are shown in Fig. 11; the full panel is provided in Supplemental Information).
FNO catalyses the reduction of NADP^+ with F420H2 via hydride transfer, and the reverse reaction, i.e. the reduction of F420 with NADPH. Here, the spectrofluorometric assay of FNO activity was based on monitoring the decrease in F420 emission at 470 nm upon excitation at 420 nm. Briefly, FNO (4 nM) was incubated with 0.5 mM F420 (purified from T. roseum as described in the Supplementary Information) and 0.5 mM NADPH (this concentration was selected on the basis of Km values in other methanogenic organisms[42]) at 37 °C in the presence or in the absence of increasing concentrations of the compounds of interest in 50 mM sodium citrate, pH 6.0. […] The residual activity ( a ) was expressed as the ratio of the initial velocities of the product formation in the presence ( V0,i ) and in the absence ( V0 ) of a given inhibitor concentration [Ii]. Raw data were processed as described elsewhere.

FNO from M. smithii [2] = target: T1, FNO from M. smithii; experiment: SPR optical biosensor binding to immobilized FNO; conditions: for kass / kdiss / kon / koff: PBS pH 7.4; for kon: read-out: kass; for koff: read-out: kdiss
Protocol: FNO was covalently immobilized on a carboxylate surface according to the protocol described in the Materials and Methods section. The change in the signal related to immobilization of the enzyme (ΔR ≅ 1,000 arcsec) corresponded to the achievement of a partial Langmuir monolayer for a protein of 120 kDa (2 ng/mm^2). The affinities of FNO for the ten compounds of interest were derived from the fit of raw data (representative sensorgrams are shown in Fig. 8; full panel is provided in Supplemental Information) to a mono-exponential model.
FNO from M. smithii (isolated as described in the Supplementary Information) was covalently coupled to the carboxylate surface of the sensor via EDC/NHS chemistry. Upon successful immobilization of FNO, unreacted carboxyl groups were blocked with ethanolamine 1 M pH 8.5, and the surface was eventually equilibrated with PBS. Independent additions of each molecule at different concentrations (β-D-glucose pentacetate 1.25–62.5 µM; mangiferin 3.125–37.5 µM; baicalin 1.25–25 µM; frangulin A 30–480 nM; ononin 29–465 nM; 5z-caffeoylquinic acid […]; ZINC35442308 0.30–4.92 µM; ZINC248099510 0.31–4.93 µM; ZINC2120951 0.32–5.1 µM; ZINC9271779 0.32–5.2 µM) to surface-blocked FNO were performed, each time monitoring the association kinetics until equilibrium. […] The affinities between surface-blocked FNO and soluble ligands were derived from the fit of raw data to single exponential model.

FNO [3] = experiment: Competitive binding test with NADP+ on biosensor; design: species or system Methanobrevibacter smithii
Protocol: A competitive binding test between NADP^+ and three out of the ten compounds (with high, moderate and low affinity for FNO, respectively) was performed to identify the binding site on FNO. The protocol involved the addition of a given concentration of baicalin, mangiferin and β-D-glucose pentaacetate to both free and NADP^+-saturated FNO.

FNO from M. smithii [4] = target: T1, FNO from M. smithii; experiment: Molecular docking (AutoDock Vina) onto the homology model of FNO; conditions: predicted
Source text: The 8,012 compounds selected from the Zbc database subset on molecular weight and clogP criteria were individually docked against the homology model of FNO from M. smithii using a Perl/Python pipeline on AutoDock Vina. The residues constituting the catalytic site of FNO were retrieved from the available literature[19] and explicitly defined as the grid centre for all ligands. The quantitative results of docking in terms of ΔGpred of each highest-score pose were collected into a single array (ΔGpred values ranged between − 4.9 and − 10.5 kcal/mol), which was then merged with the other structural descriptors (as PSA, H-donors and acceptors, cLogP, MW, Drug-likeness, Total surface area) available for each compound as summarized in Supplementary Information.
In the absence of a crystallographic structure for FNO from M. smithii, its three-dimensional structure was obtained by homology modelling, according to a previously reported procedure. […]
8,012 molecules selected from the Zbc subset of ZINC database[36] on molecular weight (350–450 amu) and hydrophobicity (cLogP < 3.85) criteria were iteratively docked to the homology model of FNO from M. smithii using AutoDock Vina[37]. […] Structural properties of each molecule and calculated binding affinities to FNO were globally analysed with DataWarrior[38].

FNO [5] = experiment: pH dependence of mangiferin-FNO binding (biosensor, linkage analysis); conditions: 7.35 ± 0.33 in free enzyme
Protocol: In order to evaluate the effects of pH on the enzyme-ligand interaction, the binding of mangiferin (6.25–62.5 µM) to FNO was studied at different pH values in the range 6.0–8.0.
To evaluate the effects of pH on the enzyme-ligand interaction, the binding studies between mangiferin and FNO were replicated in a pH range between 6.4 and 8. The observed dependence of experimental KD from pH was analyzed according to a classic linkage relationship, protons being considered as heterotropic ligands for FNO[40]. This model involves a macromolecule (FNO) having a binding site for a ligand (mangiferin), and heterotropic binding sites able to accommodate a second ligand (H^+). These binding sites for protons present on the macromolecule can be grouped into two main sets: one with n binding sites with an ionization constant λ1, and one with m binding sites, each having an ionization constant equal to λ2. Therefore, the macromolecule can be described in three main ionization conditions: at low and at high pH values the fully protonated and the completely deprotonated forms prevail, respectively, whereas the intermediate form prevails at pH values equal to:1 pH=-logλ1-logλ2/2
Upon binding, the proton binding sites have their ionization constants shifted to λ3 and λ4, respectively. […]

[6] = 0.5 mM NADPH, 15 min preincubation, pH 6.0, 37 °C
[7] = experimental equilibrium constant, read-out: KD,E
[8] = 0.5 mM NADPH, 15 min preincubation, pH 6.0, 37 °C, read-out: Ki

T1 sequence (A5UJ76 entry or part of it): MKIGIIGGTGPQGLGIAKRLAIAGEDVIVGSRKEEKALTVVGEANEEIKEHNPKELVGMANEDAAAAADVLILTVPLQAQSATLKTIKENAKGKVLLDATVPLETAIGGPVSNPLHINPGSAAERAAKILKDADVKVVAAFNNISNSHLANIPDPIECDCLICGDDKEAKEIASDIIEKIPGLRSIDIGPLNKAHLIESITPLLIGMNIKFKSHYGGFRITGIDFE

| Ki (FNO from M. smithii [1]; [6]) [nM] | kass (FNO from M. smithii [2]) | kdiss (FNO from M. smithii [2]) [s⁻¹] | Kd (FNO from M. smithii [2]; [7]) [nM] | kon (FNO from M. smithii [2]) [M⁻¹ s⁻¹] | koff (FNO from M. smithii [2]) [s⁻¹] | Ki (FNO from M. smithii [1]; [8]) [nM] | Compound | biosensor response on NADP+-saturated FNO with respect to free enzyme (FNO [3]) | also measured |
| --- | --- | --- | --- | --- | --- | --- | --- | --- | --- |
| 210 ± 140 | 20,406 ± 2,270 M^−1 s^−1 | 0.005 ± 0.003 | 230 ± 160 |  |  |  | O=C(C=Cc1ccc(O)c(O)c1)OC1CC(O)(C(=O)O)CC(O)C1O (stereo not drawn) [5z-caffeoylquinic acid] |  |  |
|  |  |  | 130 ± 50 | 35200 | 0.0045 ± 0.0014 | 49 ± 14 | Cc1cc(O)c2c(c1)C(=O)c1cc(O[C@@H]3O[C@@H](C)[C@H](O)[C@@H](O)[C@H]3O)cc(O)c1C2=O [Frangulin A] |  | increase of inhibitory potency from β-D-glucose pentaacetate (FNO from M. smithii [1]; 0.5 mM NADPH): approximately 100 fold |
|  |  |  | 240 ± 110 | 29700 | 0.0072 ± 0.0033 | 205 ± 69 | COc1ccc(-c2coc3cc(O[C@@H]4O[C@H](CO)[C@@H](O)[C@H](O)[C@H]4O)ccc3c2=O)cc1 [Ononin] |  |  |
| 970 ± 670 | 2,423 ± 116 M^−1 s^−1 | 0.004 ± 0.001 | 1650 ± 410 |  |  |  | COc1cc(OC)c2c(C)c(CC(=O)NCC(=O)NCC(=O)O)c(=O)oc2c1 [ZINC2120951] |  |  |
| 1070 ± 340 | 1,147 ± 267 M^−1 s^−1 | 0.0078 ± 0.0008 | 6800 ± 1700 |  |  |  | Nc1ncnc2c1nc(NN=Cc1ccccc1)n2C1OC(CO)C(O)C1O (stereo not drawn) [ZINC9271779] |  |  |
|  |  |  | 4850 ± 1850 | 2720 | 0.013 ± 0.005 | 3960 ± 200 | CC(=O)OC[C@H]1O[C@@H](OC(C)=O)[C@H](OC(C)=O)[C@@H](OC(C)=O)[C@@H]1OC(C)=O [β-D-glucose pentaacetate] | significantly lower |  |

| Compound | Ki (FNO from M. smithii [1]; [6]) [nM] | kass (FNO from M. smithii [2]) | kdiss (FNO from M. smithii [2]) [s⁻¹] | Kd (FNO from M. smithii [2]; [7]) [nM] | kon (FNO from M. smithii [2]) [M⁻¹ s⁻¹] | koff (FNO from M. smithii [2]) [s⁻¹] | Ki (FNO from M. smithii [1]; [8]) [nM] | biosensor response on NADP+-saturated FNO with respect to free enzyme (FNO [3]) | also measured |
| --- | --- | --- | --- | --- | --- | --- | --- | --- | --- |
| O=C(O)[C@H]1O[C@@H](Oc2cc3oc(-c4ccccc4)cc(=O)c3c(O)c2O)[C@H](O)[C@@H](O)[C@@H]1O [Baicalin] |  |  |  |  | 3870 | 0.00025 ± 0.0001 |  | significantly lower | Ki (FNO from M. smithii [1]): 45 ± 3 nM; Kd (FNO from M. smithii [2]): 65 ± 28 nM |
| O=c1c2cc(O)c(O)cc2oc2cc(O)c([C@@H]3O[C@H](CO)[C@@H](O)[C@H](O)[C@H]3O)c(O)c12 [Mangiferin] |  |  |  | 400 ± 200 | 4820 | 0.002 ± 0.00097 | 650 ± 250 | significantly lower | affinity for FNO with respect to ZINC05409528 (FNO from M. smithii [4]): nearly sevenfold lower affinity; pKa of histidine residue in FNO-mangiferin complex (FNO [5]; pH 6.4 to 7.4): 5.26 ± 2.61; pKa of histidine residue in FNO-mangiferin complex (FNO [5]; pH 7.4 to 8.0): 8.21 ± 0.12 |

From paper PMC7588429, “Structure/activity virtual screening and in vitro testing of small molecule inhibitors of 8-hydroxy-5-deazaflavin:NADPH oxidoreductase from gut methanogenic bacteria” (Scientific Reports, 2020)
